“Also recorded” adds a separate entry of the source. Where two headings read alike, the source gives them in different places.
Key:
[1] = human, read-out: Cmax (μM) in plasma, cited from earlier work
[2] = target: T1, human mPGES-1 (Homo sapiens, UniProt O14684); experiment: in vitro inhibitory activity against human mPGES-1 (PGE2 enzyme immunoassay); assay type: biochemical; settings: lapatinib constant 1 μM, GSH at different concentrations (FIG. 3D)
T1 construct: made in house
T1 sequence (O14684 1-152): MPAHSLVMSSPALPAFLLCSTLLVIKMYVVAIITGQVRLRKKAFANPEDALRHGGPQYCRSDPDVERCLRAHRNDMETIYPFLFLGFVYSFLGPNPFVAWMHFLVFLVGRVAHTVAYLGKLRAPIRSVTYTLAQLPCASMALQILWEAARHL

[3] = test system: pain in cancer patients; settings: cited from earlier work
[4] = test system: pain symptoms in inflammatory breast cancer patients; settings: lapatinib monotherapy, n=17, not statistically significant (p>0.05); cited from earlier work
[5] = test system: pain in cancer patients; experiment: clinical data mining: patients complaining about pain in lapatinib clinical trials; assay type: in vivo, human; design: Pain decreased compared to control group (%): Arthralgia / Pain decreased compared to control group (%): Musculoskeletal Pain / Pain decreased compared to control group (%): Headache / Pain decreased compared to control group (%): Oral pain / Pain decreased compared to control group (%): Pain-overall / Pain decreased compared to control group (%): Myalgia: concentration or dose not given beside the values
Method: The “other adverse events” part of the clinical report was analyzed.
In particular, all of the data from clinical trials NCT00424255, NCT00390455, NCT00371566, and NCT00374322 was collected together as a larger dataset.
(§1) All p values on the differences between groups were calculated using χ^2 tests on GraphPad Prism 6.0. Confidence interval was set at 95%. […] Barnard's tests or Fisher's tests were not chosen due to the large sample size and Yate's correction on χ^2 tests was not adopted due to the same reason.

[6] = test system: pain in cancer patients; experiment: clinical data mining: pain complaints in phase III clinical trial NCT00490139; assay type: in vivo, human; settings: compared to patients given only trastuzumab (FIG. 5)
Method: as §1

[7] = target: T1, human mPGES-1; experiment: in vitro inhibitory activity against human mPGES-1 (PGE2 enzyme immunoassay); assay type: biochemical
Method: The above computational predictions were followed by in vitro activity assays for their actual inhibitory activity against human mPGES-1 using an ELISA assay previously-described.^16-17, 19 Specifically, a total of 18 FDA-approved drugs were assayed for their inhibitory activity against human mPGES-1.
The protocol for the protein preparation and in vitro activity assays were the same as described previously.^69-72 The enzyme activity assays were performed on ice in 1.5 ml microfuge tubes by using the expressed human mPGES-1. The reaction mixture contained: 0.2 M Na2HPO4/NaH2PO4, pH 7.2, 10 μL; 0.1 M GSH, 2.5 μL; diluted microsomal enzyme (80 μg/mL), 1 μL; PGH2 (0.31 mM in DMF), 5 μL; 1 μL inhibitor; and H2O in a final reaction volume of 100 μL. PGH2 was stored in dry ice and used to initiate the reaction. Compounds were incubated with the enzyme for 15 min at room temperature before the addition of cold PGH2 (1 μM final) to initiate the enzyme reaction. After 30 s, 10 μL of SnCl2 (40 mg/mL) in ethanol was added to stop the reaction. The non-enzymatic conversion of PGH2 to PGE2 was performed in the same buffer devoid of enzyme. The reaction mixture was placed on ice until PGE2 production was determined by the PGE2 enzyme immunoassay as described earlier. IC50 values of the inhibitors were calculated by using the GraphPad Prism 6.0.

[8] = test system: pain in cancer patients; settings: NCT00490139 Group III: oral lapatinib 1500 mg daily, 52 weeks; cited from earlier work
[9] = NCT00371566, with drug total 69
[10] = NCT00374322, with drug total 1573
[11] = NCT00390455, with drug total 141
[12] = NCT00424255, with drug total 349
[13] = all individual pains added, four trials
[14] = combined NCT00374322, NCT00390455
[15] = combined NCT00374322, NCT00390455, NCT00424255, NCT00371566
[16] = combined NCT00390455, NCT00424255
[17] = combined NCT00424255, NCT00371566
[18] = combined nine trials (footnote e)

Question: With `CS(=O)(=O)CCNCc1ccc(-c2ccc3ncnc(Nc4ccc(OCc5cccc(F)c5)c(Cl)c4)c3c2)o1` [lapatinib] as the compound, how does the Cmax ([1]; 1250 mg orally once daily, trial NCT00477464) read?
Answer: 6.06 µM

Question: And the Cmax ([1]; 1500 mg (6 pills at 250 mg) once oral daily, trials NCT00486954 and NCT01138046, average Cmax)?
Answer: 8.6 µM

Question: What about the Cmax ([1]; dose 10 mg, GW572016 ditosylate monohydrate oral suspension (Bence et al.)) of the same compound?
Answer: 0.019 µM

Question: What about the Cmax ([1]; dose 25 mg, GW572016 ditosylate monohydrate oral suspension (Bence et al.)) of the same compound?
Answer: 0.04 µM

Question: And the Cmax ([1]; dose 50 mg, GW572016 ditosylate monohydrate oral suspension (Bence et al.))?
Answer: 0.124 µM

Question: And the Cmax ([1]; dose 100 mg, GW572016 ditosylate monohydrate oral suspension (Bence et al.))?
Answer: 0.213 µM

Question: What about the Cmax ([1]; dose 175 mg, GW572016 ditosylate monohydrate oral suspension (Bence et al.)) of the same compound?
Answer: 0.38 µM

Question: What about the Cmax ([1]; dose 250 mg, GW572016 ditosylate monohydrate oral suspension (Bence et al.)) of the same compound?
Answer: 0.546 µM

Question: And the Cmax ([1]; dose 500 mg, tablets, daily oral, trial EGF10004)?
Answer: 1.76 µM

Question: What about the Cmax ([1]; dose 650 mg, tablets, daily oral, trial EGF10004) of the same compound?
Answer: 2.24 µM

Question: And the Cmax ([1]; dose 1000 mg, tablets, daily oral, trial EGF10004)?
Answer: 3.18 µM

Question: And the “competition with co-factor GSH” value [2]?
Answer: competes with co-factor GSH; also recorded: GSH-competitive inhibitor

Question: What about the “Headache, With drug pains” value [3, 9] of the same compound?
Answer: 3

Question: What about the “Oral pain, With drug pains” value [3, 9] of the same compound?
Answer: 10

Question: What about the “patients reporting arthralgia / patients in lapatinib group” value ([3]; NCT00374322, vs placebo 113/1574) of the same compound?
Answer: 69/1573

Question: What about the “patients reporting headache / patients in lapatinib group” value ([3]; NCT00374322, vs placebo 185/1574) of the same compound?
Answer: 140/1573

Question: And the “Arthralgia, With drug pains” value [3, 10]?
Answer: 69

Question: What about the “Headache, With drug pains” value [3, 10] of the same compound?
Answer: 140

Question: And the “Arthralgia, With drug pains” value [3, 11]?
Answer: 3

Question: And the “Back Pain, With drug pains” value [3, 11]?
Answer: 5

Question: And the “Bone Pain, With drug pains” value [3, 11]?
Answer: 3

Question: And the “Headache, With drug pains” value [3, 11]?
Answer: 19

Question: And the “Musculoskeletal Pain, With drug pains” value [3, 11]?
Answer: 0

Question: And the “Pain In Extremity, With drug pains” value [3, 11]?
Answer: 1

Question: What about the “Pain-chest/thorax, With drug pains” value [3, 11] of the same compound?
Answer: 1

Question: What about the “Headache, With drug pains” value [3, 12] of the same compound?
Answer: 20

Question: And the “Musculoskeletal Pain, With drug pains” value [3, 12]?
Answer: 15

Question: What about the “Oral pain, With drug pains” value [3, 12] of the same compound?
Answer: 25

Question: And the “relief from symptoms including pain (in words)” value [4]?
Answer: provide relief from symptoms, including pain, in the short term

Question: And the “# of patients complaining pain/# of patients given lapatinib, Counts: Pain-overall” value [5, 13]?
Answer: 304/4754

Question: What about the “patients complaining pain, Percentage (%): Pain-overall” value [5, 13] of the same compound?
Answer: 6.39%

Question: What about the “Pain decreased compared to control group (%): Pain-overall” value ([5]; all individual pains added, four trials, control drugs or placebo) of the same compound?
Answer: 28.00%

Question: What about the “# of patients complaining pain/# of patients given lapatinib, Counts: Arthralgia” value [5, 14] of the same compound?
Answer: 72/1714

Question: What about the “patients complaining pain, Percentage (%): Arthralgia” value [5, 14] of the same compound?
Answer: 4.20%

Question: And the “# of patients complaining pain/# of patients given lapatinib, Counts: Headache” value [5, 15]?
Answer: 182/2132

Question: And the “patients complaining pain, Percentage(%): Headache” value [5, 15]?
Answer: 8.54%

Question: And the “Pain decreased compared to control group (%): Headache” value ([5]; combined NCT00374322, NCT00390455, NCT00424255, NCT00371566, control drugs or placebo)?
Answer: 23.02%

Question: What about the “Pain decreased compared to control group (%): Arthralgia” value ([5]; combined NCT00374322, NCT00390455, control drugs or placebo) of the same compound?
Answer: 39.60%

Question: And the “# of patients complaining pain/# of patients given lapatinib, Counts: Musculoskeletal Pain” value [5, 16]?
Answer: 15/490

Question: What about the “patients complaining pain, Percentage (%): Musculoskeletal Pain” value [5, 16] of the same compound?
Answer: 3.06%

Question: And the “Pain decreased compared to control group (%): Musculoskeletal Pain” value ([5]; combined NCT00390455, NCT00424255, control drugs or placebo)?
Answer: 39.67%

Question: What about the “# of patients complaining pain/# of patients given lapatinib, Counts: Oral pain” value [5, 17] of the same compound?
Answer: 35/418

Question: And the “patients complaining pain, Percentage (%): Oral pain” value [5, 17]?
Answer: 8.37%

Question: What about the “Pain decreased compared to control group (%): Oral pain” value ([5]; combined NCT00424255, NCT00371566, control drugs or placebo) of the same compound?
Answer: 18.03%

Question: And the “# of patients complaining pain/# of patients given lapatinib, Counts: Myalgia” value [5, 18]?
Answer: 321/3314

Question: What about the “patients complaining pain, Percentage (%): Myalgia” value [5, 18] of the same compound?
Answer: 9.69%

Question: What about the “Pain decreased compared to control group (%): Myalgia” value ([5]; combined nine trials (footnote e), control drugs or placebo) of the same compound?
Answer: 14.02%

Question: And the “overall pain relief (in words)” value ([5]; pain-overall category, combined trials, p<0.05)?
Answer: significantly relieve pain in cancer patients

Question: And the “pain relief in NCT00490139 (in words)” value [6]?
Answer: significantly relive all types of pain (p<0.05), except for the back pain

Question: What about the IC50 [7] of the same compound?
Answer: 0.8 µM

Question: What about the “Arthralgia, Patient counts” value [8] of the same compound?
Answer: 290/2057

Question: What about the “Arthralgia, patient percentage” value [8] of the same compound?
Answer: (14.10%)

Question: What about the “Back Pain, patient percentage” value [8] of the same compound?
Answer: (5.79%)

Question: What about the “Bone Pain, Patient counts” value [8] of the same compound?
Answer: 91/2057

Question: What about the “Bone Pain, patient percentage” value [8] of the same compound?
Answer: (4.42%)

Question: What about the “Headache, Patient counts” value [8] of the same compound?
Answer: 161/2057

Question: And the “Headache, patient percentage” value [8]?
Answer: (7.83%)

Question: What about the “Musculoskeletal pain, Patient counts” value [8] of the same compound?
Answer: 70/2057

Question: And the “Musculoskeletal pain, patient percentage” value [8]?
Answer: (3.40%)

Question: And the “Pain in Extremity, Patient counts” value [8]?
Answer: 99/2057

Question: And the “Pain in Extremity, patient percentage” value [8]?
Answer: (4.81%)

From patent US11103509B2 (University of Kentucky Research Foundation, priority 2018, dated 2021)
